Experimental data from patent US9290529B2, “Carbonic anhydrase inhibitors and method of their production” (USTAV ORGANICKE CHEMIE A BIOCHEMIE AKADEMIE VED CESKE …, priority 2011, dated 2016).

Legend:
K562-TAX = assay: MTT cytotoxicity assay, K562-TAX; format: cell-based, human; details: 72 h
Excerpt: (§1) One of the parameters used as the basis for colorimetric assays is the metabolic activity of viable cells. For example, a microtiter assay which uses the tetrazolium salt MTT is now widely used to quantitate cell proliferation and cytotoxicity (Hájduch et al., Cytotechnology, 19, 1996, 243-245). For instance, this assay is used in drug screening programs and in chemosensitivity testing. Because tetrazolium salts are cleaved only by metabolically active cells, these assays exclusively detect viable cells. In the case of the MTT assay, yellow soluble tetrazolium salt is reduced to a coloured water-insoluble formazan salt. After it is solubilized, the formazan formed can easily and rapidly be quantified in a conventional ELISA plate reader at 570 nm (maximum absorbancy). The quantity of reduced formazan corresponds to the number of vital cells in the culture.
(§2) All cells were purchased from the […] (ATCC), unless otherwise indicated: the CEM line are highly chemosensitive T-lymphoblastic leukemia cells, K562 cells were derived from patient with […] with bcr-abl translocation, A549 line is lung adenocarcinoma, HCT116 is colorectal tumor cell line and its p53 gene knock-down counterpart (HCT116p53−) is a model of human cancers with p53 mutation frequently associated with poor prognosis. The daunorubicin resistant subline of CEM cells (CEM-DNR bulk) and paclitaxel resistant subline K562-tax were selected in our laboratory by the cultivation of maternal cell lines in increasing concentrations of daunorubicine or paclitaxel, respectively (Noskova et al., Neoplasma 49, 2002, 418). The CEM-DNR bulk cells overexpress MRP-1 protein, while K562-tax cells overexpress P-glycoprotein, both proteins belong to family of ABC transporters and are involved in primary and/or acquired multidrug resistance phenomenon (Noskova et al., Neoplasma 49, 2002, 418). The cells were maintained in Nunc/Corning 80 cm^2 plastic tissue culture flasks and cultured in cell culture medium (DMEM/RPMI 1640 with 5 g/l glucose, 2 mM glutamine, 100 U/ml penicillin, 100 μg/ml streptomycin, 10% fetal calf serum, and NaHCO3).
(§3) This assay was performed according to Hajduch et al., Anti-Cancer Drugs 10, 1997, 1007. Cell suspensions were prepared and diluted according to the particular cell type and the expected target cell density (2 500-30 000 cells/well based on cell growth characteristics). Cells were added by pipette (80 μl) into 96-well microtiter plates. Inoculates were allowed a pre-incubation period of 24 h at 37° C. and 5% CO2 for stabilization. Four-fold dilutions, in 20-μl aliquots, of the intended test concentration were added to the microtiter plate wells at time zero. All test compound concentrations were examined in duplicate. Incubation of the cells with the test compounds lasted for 72 h at 37° C., in a 5% CO2 atmosphere at 100% humidity. At the end of the incubation period, the cells were assayed using MTT. Aliquots (10 μl) of the MTT stock solution were pipetted into each well and incubated for a further 1-4 h. After this incubation period the formazan produced was dissolved by the addition of 100 μl/well of 10% aq SDS (pH=5.5), followed by a further incubation at 37° C. overnight. The optical density (OD) was measured at 540 nm with a Labsystem iEMS Reader MF. Tumor cell survival (TCS) was calculated using the following equation: TCS=(ODdrug-exposed well/mean ODcontrol wells)×100%. The TCS50 value, the drug concentration lethal to 50% of the tumor cells, was calculated from appropriate dose-response curves.

HCT116 = assay: MTT cytotoxicity assay, HCT116; format: cell-based, human; details: 72 h
Excerpt: as §1, §2, §3

MRC-5 = assay: MTT cytotoxicity assay, MRC-5; format: cell-based; details: MRC-5, MTT, 72 h
Excerpt: as §1, §3

CCRF-CEM cells = assay: Flow cytometric measurement of intracellular pH (pHi), CA IX negative CCRF-CEM; format: cell-based, human; details: carboranes at 1 μM, 24 hour incubation, control 7.362
Procedure: The effect of carborane CAIX (carbonic anhydrase IX) inhibitors was evaluated on colorectal cancer cell line HCT116 expressing CAIX enzyme versus CA IX negative cell line of T-lymphoblastic leukemia CCRF-CEM. Acetazolamide, a known inhibitor of CAIX, was used as a standard. HCT116/CCRF-CEM cells were cultivated in McCoy/RPMI Media supplemented with 10% FCS and antibiotics and seeded at high density ([…] per 3.5 cm dish) to induce pericellular hypoxia and thus stimulate CA IX expression. Measurement of pHi was assessed as described in Cianchi et al. [Cianchi F., et al. Selective inhibition of carbonic anhydrase IX decreases cell proliferation and induces […] apoptosis in human cancer cells. The Journal of Pharmacology and Experimental Therapeutics, 2010, Vol. 334, No. 3, 710-719].
[…] The pHi was measured by flow cytometry in cell cultures pretreated with 10 μM of pH sensitive probe carboxyseminaphtorhoda-fluor-1-acetoxymethyl ester (SNARF, Invitrogen, CA) for 15 min at 37° C. After incubation, the cells were washed twice with PBS. Because the addition of bicarbonate can affect pHi, all incubation and cell washes were performed in bicarbonate-free buffer. SNARF was excited at 488 nm and emitted at 580 and 640 nm. The ratio of the emission wavelengths at 640/580 nm was then used to estimate the pHi from a calibration curve. The calibration curve was prepared by nigericin clamp technique. In this method, after the SNARF labeling of untreated cells, aliquots of cell suspensions were re-suspended in a high potassium containing buffer at specific pH (usually 6.8, 7.0, 7.2, 7.4, 7.6 and 7.8). The cell suspensions were then clamped at a specific pH value by the addition of 0.03 μM nigericin (Sigma-Aldrich). Nigericin is a ionophore that allows the exchange of H for K ions, thus abolishing the pH gradient across the cell membrane. When the internal and external K concentrations are approximately equal, the pH rapidly equilibrates to the pH of the bathing solution. A total of 20,000 events were acquired on a FACS ARIA II flow cytometer (Becton. Dickinson) for further analysis.
The fluorescent ratio values (640/580 nm) calculated for each pH point were further used to construct calibration curve in Prism software (GraphPad Software, Inc., San Diego, Calif.), from which the pHi values in treated cells were determined (Table 3).

Question: Which results are given for “1-methylenesulfamide-1,7-dicarba-closo-dodecaborane [CB-19]”?
Answer: IC50 (K562-TAX): 86.7 ± 12.7 µM; IC50 (HCT116): 89.3 ± 3.3 µM; IC50 (MRC-5): ≥ 100 µM; pHi (CCRF-CEM cells): 7.319

Question: What does the source list for “1-methylenesulfamide-3,3′-commo-bis(1,2-dicarba-3-cobalta(III)-closo-dodecabor)ate (1-) [CB-5]”?
Answer: IC50 (K562-TAX): 66.4 ± 8 µM; IC50 (HCT116): 75.3 ± 4.1 µM; IC50 (MRC-5): 93.2 ± 7 µM; pHi (CCRF-CEM cells): 7.378

Question: How did the IC50 (K562-TAX) turn out when “1-methylenesulfamide-9-phenyl-1,2-dicarba-closo-dodecaborane and 1-methylene-sulfamide-12-phenyl-1,2-dicarba-closo-dodecaborane [CB-8]” was run?
Answer: 79.6 ± 10.9 µM

Question: What about the IC50 (HCT116) of the same substance?
Answer: 97.4 ± 3.4 µM

Question: What about the IC50 (MRC-5) of the same substance?
Answer: ≥ 100 µM

Question: And the pHi (CCRF-CEM cells)?
Answer: 7.427

Question: For “1-methylensulfamide-1,2-dicarba-closo-dodekaborane [CB-1]”, which IC50 (K562-TAX) is on record?
Answer: 81.5 ± 11 µM

Question: And the IC50 (HCT116)?
Answer: 63.9 ± 5.7 µM

Question: What about the IC50 (MRC-5) of the same substance?
Answer: 22.1 ± 1.1 µM

Question: And the pHi (CCRF-CEM cells)?
Answer: 7.429

Question: Which results are given for “1-sulfamide-closo-1-carbadodecaborate (1-) [CB-3]”?
Answer: IC50 (K562-TAX): ≥ 100 µM; IC50 (HCT116): ≥ 100 µM; IC50 (MRC-5): ≥ 100 µM; pHi (CCRF-CEM cells): 7.362

Question: How did the IC50 (K562-TAX) turn out when “7-methylensulfamide-8-phenyl-(7,8-nido-dikarbaundekabor)ate (1-) [CB-6]” was run?
Answer: 56.9 ± 15.1 µM

Question: What about the IC50 (HCT116) of the same substance?
Answer: 78.4 ± 17 µM

Question: And the pHi (CCRF-CEM cells)?
Answer: 7.352

Question: With “7-methylensulfamide-(7,8-nido-dicarbaundekaborate) (1-) [CB-2]” as the substance, how does the IC50 (K562-TAX) read?
Answer: 99.9 ± 0.2 µM

Question: What about the IC50 (HCT116) of the same substance?
Answer: ≥ 100 µM

Question: What about the IC50 (MRC-5) of the same substance?
Answer: ≥ 100 µM

Question: And the pHi (CCRF-CEM cells)?
Answer: 7.308

Question: For “8-butyloxysulfamide-3,3′-commo-bis(decahydro-1,2-dicarba-3-cobalta(III)-closo-dodekabor)ate (1-) [CB-16]”, which IC50 (K562-TAX) is on record?
Answer: 95.8 ± 4.4 µM

Question: What about the IC50 (HCT116) of the same substance?
Answer: 84.8 ± 3 µM

Question: And the IC50 (MRC-5)?
Answer: ≥ 100 µM

Question: What about the pHi (CCRF-CEM cells) of the same substance?
Answer: 7.442

Question: With “8-diethyleneoxysulfamide-3,3′-commo-bis(decahydro-1,2-dicarba-3-cobalta(III)-closo-dodekabor)ate (1-) [CB-17]” as the substance, how does the IC50 (K562-TAX) read?
Answer: ≥ 100 µM

Question: And the IC50 (HCT116)?
Answer: ≥ 100 µM

Question: What about the IC50 (MRC-5) of the same substance?
Answer: ≥ 100 µM

Question: And the pHi (CCRF-CEM cells)?
Answer: 7.412

Question: “8-ethylaminomethylsulfamide-8″-methoxy-3,3′-commo-bis(decahydro-1,2-dicarba-3-cobalta(III)-closo-dodecabor)ate (1-) [CB-15]” was tested. Which IC50 (K562-TAX) did it give?
Answer: 16.6 ± 1.2 µM

Question: What about the IC50 (HCT116) of the same substance?
Answer: 16.6 ± 0.2 µM

Question: What about the IC50 (MRC-5) of the same substance?
Answer: 27 ± 4.8 µM

Question: What about the pHi (CCRF-CEM cells) of the same substance?
Answer: 7.472

Question: Which IC50 (K562-TAX) does the source give for “8-methylensulfamide-8″-methoxy-3,3′-commo-bis(1,2-dicarba-3-cobalta(III)-closo-dodecabor)ate (1-) [CB-4]” here?
Answer: 55.2 ± 4.7 µM

Question: What about the IC50 (HCT116) of the same substance?
Answer: 69.2 ± 3 µM

Question: And the IC50 (MRC-5)?
Answer: 77.9 ± 1 µM

Question: And the pHi (CCRF-CEM cells)?
Answer: 7.385

Question: For “8-propylenesulfamide-7-phenyl-(7,8-nido-dicarbaundecabor)ate (1-) [CB-13]”, which IC50 (K562-TAX) is on record?
Answer: 64.2 ± 4.5 µM

Question: What about the IC50 (HCT116) of the same substance?
Answer: 55.5 ± 1.8 µM

Question: What about the IC50 (MRC-5) of the same substance?
Answer: 75.6 ± 1.5 µM

Question: What about the pHi (CCRF-CEM cells) of the same substance?
Answer: 7.452

Question: With “9-sulfamide-9′-amine-2,2′-commo-bis(1,7,9-trikarba-2-ferra(II)-kloso-dodekabor)ane [CB-12]” as the substance, how does the IC50 (K562-TAX) read?
Answer: ≥ 100 µM

Question: What about the IC50 (HCT116) of the same substance?
Answer: ≥ 100 µM

Question: And the IC50 (MRC-5)?
Answer: ≥ 100 µM

Question: What about the pHi (CCRF-CEM cells) of the same substance?
Answer: 7.395

Question: With “10-sulfamide-9′-amine-2,2′-commo-(1,7,10-tricarba-1′,7′,9′-tricarba-2-ferra (II)-closo-dodekabor)ane [CB-10]” as the substance, how does the IC50 (K562-TAX) read?
Answer: 73.6 ± 11.1 µM

Question: What about the IC50 (HCT116) of the same substance?
Answer: 96.4 ± 4.5 µM

Question: What about the IC50 (MRC-5) of the same substance?
Answer: ≥ 100 µM

Question: And the pHi (CCRF-CEM cells)?
Answer: 7.328

Question: “Di(methylenesulfamide)-1,7-dicarba-closo-dodecaborane [CB-20]” was tested. Which IC50 (K562-TAX) did it give?
Answer: 96.3 ± 5.8 µM

Question: What about the IC50 (HCT116) of the same substance?
Answer: 99.6 ± 1.1 µM

Question: And the IC50 (MRC-5)?
Answer: ≥ 100 µM

Question: And the pHi (CCRF-CEM cells)?
Answer: 7.422
